Target: LFA-1 (Homo sapiens, UniProt P20701)
Assay: Affinity (KD) of derivatives for LFA-1
Format: binding
Conditions: affinity for LFA-1; read-out: KD (Affinity constant)

LFA-1, sequence (P20701 26-1170): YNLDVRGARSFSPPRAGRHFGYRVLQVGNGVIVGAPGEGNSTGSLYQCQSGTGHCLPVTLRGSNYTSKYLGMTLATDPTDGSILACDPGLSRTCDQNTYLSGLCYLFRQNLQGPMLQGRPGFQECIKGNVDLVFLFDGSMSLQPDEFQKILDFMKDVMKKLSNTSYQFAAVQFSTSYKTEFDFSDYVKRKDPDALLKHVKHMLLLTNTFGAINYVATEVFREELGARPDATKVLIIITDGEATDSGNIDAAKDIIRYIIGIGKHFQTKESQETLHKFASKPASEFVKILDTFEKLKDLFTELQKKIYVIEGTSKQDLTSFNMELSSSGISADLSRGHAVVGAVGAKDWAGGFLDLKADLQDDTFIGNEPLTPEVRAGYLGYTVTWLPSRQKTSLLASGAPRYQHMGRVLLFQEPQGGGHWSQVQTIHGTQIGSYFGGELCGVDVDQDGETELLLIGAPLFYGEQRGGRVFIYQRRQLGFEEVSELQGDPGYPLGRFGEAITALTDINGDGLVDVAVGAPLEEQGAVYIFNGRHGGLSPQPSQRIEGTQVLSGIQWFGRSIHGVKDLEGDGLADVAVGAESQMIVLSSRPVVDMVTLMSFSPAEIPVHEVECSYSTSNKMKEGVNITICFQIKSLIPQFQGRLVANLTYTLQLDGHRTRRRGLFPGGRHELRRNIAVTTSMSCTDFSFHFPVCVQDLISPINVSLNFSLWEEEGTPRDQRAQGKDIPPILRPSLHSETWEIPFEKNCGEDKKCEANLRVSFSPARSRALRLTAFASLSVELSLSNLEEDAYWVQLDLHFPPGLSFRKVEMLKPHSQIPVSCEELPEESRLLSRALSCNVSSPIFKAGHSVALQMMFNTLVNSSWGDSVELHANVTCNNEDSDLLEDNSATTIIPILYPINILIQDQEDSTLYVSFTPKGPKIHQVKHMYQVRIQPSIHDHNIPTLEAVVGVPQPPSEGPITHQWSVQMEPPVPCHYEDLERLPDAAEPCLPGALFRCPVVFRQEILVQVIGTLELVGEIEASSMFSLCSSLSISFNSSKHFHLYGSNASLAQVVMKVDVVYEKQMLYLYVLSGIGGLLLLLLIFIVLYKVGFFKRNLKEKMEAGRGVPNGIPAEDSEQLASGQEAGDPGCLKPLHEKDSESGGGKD
LFA-1, sequence (P05107 23-769 partner): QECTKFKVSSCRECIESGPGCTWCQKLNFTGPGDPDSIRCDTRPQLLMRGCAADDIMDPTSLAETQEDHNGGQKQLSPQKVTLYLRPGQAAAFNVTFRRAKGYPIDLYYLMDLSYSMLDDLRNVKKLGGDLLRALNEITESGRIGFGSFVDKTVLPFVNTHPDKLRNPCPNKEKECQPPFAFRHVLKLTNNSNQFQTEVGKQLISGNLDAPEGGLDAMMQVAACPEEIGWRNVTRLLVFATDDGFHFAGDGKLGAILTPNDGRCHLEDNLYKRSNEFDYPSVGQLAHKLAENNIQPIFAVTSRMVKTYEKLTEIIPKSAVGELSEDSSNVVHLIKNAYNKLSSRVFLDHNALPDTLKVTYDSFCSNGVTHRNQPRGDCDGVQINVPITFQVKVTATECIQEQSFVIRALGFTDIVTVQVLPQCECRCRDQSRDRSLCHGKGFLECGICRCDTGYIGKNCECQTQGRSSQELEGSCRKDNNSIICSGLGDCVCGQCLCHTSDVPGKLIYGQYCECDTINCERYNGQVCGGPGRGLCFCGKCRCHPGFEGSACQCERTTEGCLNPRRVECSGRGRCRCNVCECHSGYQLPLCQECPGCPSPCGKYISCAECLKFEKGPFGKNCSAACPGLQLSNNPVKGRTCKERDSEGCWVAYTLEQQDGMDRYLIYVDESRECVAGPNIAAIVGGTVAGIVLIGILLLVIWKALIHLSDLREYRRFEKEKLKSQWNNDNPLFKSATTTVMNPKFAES

## 5-(4-bromobenzyl)-3-(3,5-dichlorophenyl)-5-methyl-imidazolidine-2,4-dione-1-(1-butyl-4-fluoresceincarbamide) [Fluorescein- Butylamino- Nor-BIRT]
  Kd: 115 nM

## C[C@@]1(Cc2ccc(Br)cc2)C(=O)N(c2cc(Cl)cc(Cl)c2)C(=O)N1CCCCN [Butylamino- Nor-BIRT, 1-(4-aminobutyl)-5-(4-bromobenzyl)-3-(3,5-dichlorophenyl)-5-methyl-imidazolidine-2,4-dione]
  Kd: 75 nM

## O=C1N[C@@H](Cc2ccccc2)C(=O)N1c1cc(Cl)cc(Cl)c1 [JEB I-18]
  Kd: 3650 nM

## O=C1N[C@H](Cc2ccccc2)C(=O)N1c1cc(Cl)cc(Cl)c1 [JEB I-19]
  Kd: 620 nM

## CN1C(=O)N(c2cc(Cl)cc(Cl)c2)C(=O)[C@H]1Cc1ccccc1 [JEB I-22]
  Kd: 1230 nM

## CN1C(=O)N(c2cc(Cl)cc(Cl)c2)C(=O)[C@@H]1Cc1ccccc1 [JEB I-24]
  Kd: 1200 nM

Source: patent US6881747B2, “Small molecules for inhibition of function and drug delivery to leukocytes” (Science & Technology Corporation @UNM, priority 2002, dated 2005)
